Experimental data: ChEMBL document CHEMBL3399976, “Dual inhibition of allosteric mitogen-activated protein kinase (MEK) and phosphatidylinositol 3-kinase (PI3K) oncogenic targets with a bifunctional inhibitor” (Bioorg Med Chem, 2015)
One block for each compound: values may come before it. The source made the active and inactive calls. The rule behind the calls is not given here.

Columns and labels:
[1] = Inhibition of PI3K (unknown origin) by TR-FRET assay; parameters: species or system Homo sapiens
A549 [2] = test: Inhibition of PI3K in human A549 cells assessed as reduction in pAkt level at 10 uM after 1 hr by Western blotting analysis; type: cell-based
Mus musculus [3] = species: Mus musculus; test: Inhibition of PI3K in mouse lung fibroblast assessed as reduction in pAkt level at 10 uM after 1 hr by Western blotting analysis
[4] = biological target: Dual specificity mitogen-activated protein kinase kinase 1 (Mus musculus) (UniProt P31938); test: Inhibition of MEK1 in mouse lung fibroblast assessed as reduction in pErk1/2 level at 10 uM after 1 hr by Western blotting analysis
Chain of Dual specificity mitogen-activated protein kinase kinase 1 (Mus musculus) (P31938 whole entry): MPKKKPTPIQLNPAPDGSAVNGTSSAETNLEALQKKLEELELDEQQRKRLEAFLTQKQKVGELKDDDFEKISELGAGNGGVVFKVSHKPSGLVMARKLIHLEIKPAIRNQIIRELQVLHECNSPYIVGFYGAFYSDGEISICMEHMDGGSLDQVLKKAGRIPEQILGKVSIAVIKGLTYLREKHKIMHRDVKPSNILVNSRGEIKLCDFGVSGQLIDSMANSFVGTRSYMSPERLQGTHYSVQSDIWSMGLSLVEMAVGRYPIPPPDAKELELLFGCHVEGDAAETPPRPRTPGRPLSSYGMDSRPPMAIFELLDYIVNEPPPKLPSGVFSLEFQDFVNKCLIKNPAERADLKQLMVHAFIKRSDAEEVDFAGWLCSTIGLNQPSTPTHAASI

PANC-1 [5] = test: Inhibition of PI3K in human PANC1 cells assessed as reduction in pAkt level at 10 uM after 1 hr by Western blotting analysis; type: cell-based
[6] = Cytotoxicity against human PANC1 cells at 10 to 25 uM after 24 hrs by Alamar Blue assay; type: functional, PANC-1
Mus musculus [7] = species: Mus musculus; test: Inhibition of PI3K in mouse lung fibroblast assessed as reduction in pAkt level after 1 hr by Western blotting analysis
Mus musculus [8] = species: Mus musculus; test: Inhibition of PI3K in mouse lung fibroblast assessed as reduction in pAkt level at 25 uM after 1 hr by Western blotting analysis
[9] = biological target: T1, Dual specificity mitogen-activated protein kinase kinase 1 (Homo sapiens, UniProt Q02750); test: Inhibition of MEK1 in human A549 cells assessed as reduction in pErk1/2 level at 25 uM after 1 hr by Western blotting analysis; type: cell-based
T1 sequence (Q02750 whole entry): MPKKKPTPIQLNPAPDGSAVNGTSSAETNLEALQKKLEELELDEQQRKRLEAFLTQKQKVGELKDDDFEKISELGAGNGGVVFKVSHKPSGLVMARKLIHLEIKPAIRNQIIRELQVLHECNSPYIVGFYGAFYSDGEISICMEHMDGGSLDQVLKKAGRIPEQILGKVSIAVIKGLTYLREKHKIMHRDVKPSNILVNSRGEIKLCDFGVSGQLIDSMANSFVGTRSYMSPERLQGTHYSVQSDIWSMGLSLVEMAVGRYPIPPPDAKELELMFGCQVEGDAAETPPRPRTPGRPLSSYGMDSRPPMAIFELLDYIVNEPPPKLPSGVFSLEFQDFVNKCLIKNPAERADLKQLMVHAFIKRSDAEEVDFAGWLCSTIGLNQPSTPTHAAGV

A549 [10] = test: Inhibition of PI3K in human A549 cells assessed as reduction in pAkt level after 1 hr by Western blotting analysis; type: cell-based
[11] = biological target: T1, Dual specificity mitogen-activated protein kinase kinase 1; test: Inhibition of MEK1 in human A549 cells assessed as reduction in pErk1/2 level after 1 hr by Western blotting analysis; type: cell-based
PANC-1 [12] = test: Inhibition of PI3K in human PANC1 cells assessed as reduction in pAkt level after 1 hr by Western blotting analysis; type: cell-based
Aurora kinase B = Aurora kinase B (Homo sapiens, UniProt Q96GD4); test: Inhibition of AurB (unknown origin)
Chain of Aurora kinase B (Q96GD4 whole entry): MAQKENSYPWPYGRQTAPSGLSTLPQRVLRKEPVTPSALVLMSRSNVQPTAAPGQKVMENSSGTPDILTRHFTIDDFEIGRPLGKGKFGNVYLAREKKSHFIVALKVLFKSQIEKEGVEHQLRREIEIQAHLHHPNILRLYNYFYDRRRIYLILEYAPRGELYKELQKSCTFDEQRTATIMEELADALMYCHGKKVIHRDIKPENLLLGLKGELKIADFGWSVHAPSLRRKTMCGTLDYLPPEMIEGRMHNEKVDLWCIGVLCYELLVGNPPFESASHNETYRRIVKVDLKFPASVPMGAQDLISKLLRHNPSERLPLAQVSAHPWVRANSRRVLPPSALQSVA

[13] = biological target: Dual specificity mitogen-activated protein kinase kinase 1 (Mus musculus) (UniProt P31938); test: Inhibition of MEK1 in mouse lung fibroblast assessed as reduction in pErk1/2 level at 25 uM after 1 hr by Western blotting analysis
A549 [14] = test: Inhibition of PI3K in human A549 cells assessed as reduction in pAkt level at 25 uM after 1 hr by Western blotting analysis; type: cell-based
[15] = biological target: T1, Dual specificity mitogen-activated protein kinase kinase 1; test: Inhibition of MEK1 in human PANC1 cells assessed as reduction in pErk1/2 level after 1 hr by Western blotting analysis; type: cell-based; conditions: PANC-1
[16] = biological target: T1, Dual specificity mitogen-activated protein kinase kinase 1; test: Inhibition of MEK1 in human PANC1 cells assessed as reduction in pErk1/2 level at 25 uM after 1 hr by Western blotting analysis; type: cell-based; conditions: PANC-1
[17] = biological target: Dual specificity mitogen-activated protein kinase kinase 1 (Mus musculus) (UniProt P31938); test: Inhibition of MEK1 in mouse lung fibroblast assessed as reduction in pErk1/2 level after 1 hr by Western blotting analysis
PANC-1 [18] = test: Inhibition of PI3K in human PANC1 cells assessed as reduction in pAkt level at 25 uM after 1 hr by Western blotting analysis; type: cell-based
A549 [19] = test: Cytotoxicity against human A549 cells at 10 to 25 uM after 24 hrs by Alamar Blue assay; type: functional
[20] = Cytotoxicity against mouse lung fibroblast at 10 to 25 uM after 24 hrs by Alamar Blue assay; type: cell-based
[21] = biological target: Protein kinase C alpha type (Homo sapiens, UniProt P17252); test: Inhibition of PKC-alpha (unknown origin)
[22] = Inhibition of ERK (unknown origin); parameters: species or system Homo sapiens
[23] = biological target: Epidermal growth factor receptor (Homo sapiens, UniProt P00533); test: Inhibition of EGFR (unknown origin)
Chain of Epidermal growth factor receptor (P00533 whole entry): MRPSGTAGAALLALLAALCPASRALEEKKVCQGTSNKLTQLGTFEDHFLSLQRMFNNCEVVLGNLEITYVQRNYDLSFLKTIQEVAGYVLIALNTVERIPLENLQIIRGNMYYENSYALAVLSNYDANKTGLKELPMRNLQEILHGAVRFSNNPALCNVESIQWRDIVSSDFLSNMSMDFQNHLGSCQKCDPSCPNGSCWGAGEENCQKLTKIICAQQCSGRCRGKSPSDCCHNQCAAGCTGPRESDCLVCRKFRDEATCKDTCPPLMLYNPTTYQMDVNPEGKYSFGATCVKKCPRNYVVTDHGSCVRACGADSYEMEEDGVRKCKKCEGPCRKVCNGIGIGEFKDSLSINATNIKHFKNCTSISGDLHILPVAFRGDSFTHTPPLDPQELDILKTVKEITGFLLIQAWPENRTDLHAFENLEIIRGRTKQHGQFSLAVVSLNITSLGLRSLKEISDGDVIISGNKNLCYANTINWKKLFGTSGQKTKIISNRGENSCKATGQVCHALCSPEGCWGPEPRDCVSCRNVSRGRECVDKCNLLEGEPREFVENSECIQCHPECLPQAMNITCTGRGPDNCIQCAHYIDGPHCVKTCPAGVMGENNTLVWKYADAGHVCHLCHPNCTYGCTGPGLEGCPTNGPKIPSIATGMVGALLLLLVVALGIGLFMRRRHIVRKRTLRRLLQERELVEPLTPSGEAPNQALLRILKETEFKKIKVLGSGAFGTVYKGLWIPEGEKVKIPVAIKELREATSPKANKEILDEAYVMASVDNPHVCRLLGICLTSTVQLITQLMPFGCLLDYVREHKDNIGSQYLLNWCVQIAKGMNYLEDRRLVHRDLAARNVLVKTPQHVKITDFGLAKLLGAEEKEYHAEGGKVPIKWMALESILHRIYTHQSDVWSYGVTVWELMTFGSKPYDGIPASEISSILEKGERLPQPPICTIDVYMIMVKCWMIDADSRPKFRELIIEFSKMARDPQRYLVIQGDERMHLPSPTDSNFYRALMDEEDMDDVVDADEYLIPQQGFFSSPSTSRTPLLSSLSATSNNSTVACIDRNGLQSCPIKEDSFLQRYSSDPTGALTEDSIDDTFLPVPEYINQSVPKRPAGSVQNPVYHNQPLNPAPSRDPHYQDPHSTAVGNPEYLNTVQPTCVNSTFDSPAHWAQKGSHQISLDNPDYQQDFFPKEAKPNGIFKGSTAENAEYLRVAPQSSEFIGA

Compound: NCCCCCC(=O)N1CCN(c2nc(N3CCOCC3)nc(-n3c(C(F)F)nc4ccccc43)n2)CC1
- IC50 [1]: < 0.1 µM

Compound: Cc1c(Cc2cccc(N(C)S(=O)(=O)CCCNCCCCCC(=O)N3CCN(c4nc(N5CCOCC5)nc(-n5c(C(F)F)nc6ccccc65)n4)CC3)c2)c(=O)oc2cc(OC(=O)N(C)C)ccc12
- Activity [6]: 50%
- inhibition (Mus musculus [7]): Dose-dependent effect
- IC50 [1]: 0.172 µM
- inhibition (Mus musculus [8]): Active
- inhibition [9]: Active
- inhibition (A549 [10]): Dose-dependent effect
- inhibition [11]: Dose-dependent effect
- inhibition (PANC-1 [12]): Dose-dependent effect
- IC50 (Aurora kinase B): > 10 µM
- inhibition [13]: Active
- inhibition (A549 [14]): Active
- inhibition [15]: Dose-dependent effect
- inhibition [16]: Active
- inhibition [17]: Dose-dependent effect
- inhibition (PANC-1 [18]): Active
- Activity (A549 [19]): 50%
- Activity [20]: Non-toxic
- IC50 [21]: > 10 µM
- IC50 [22]: > 10 µM
- IC50 [23]: > 10 µM

Compound: FC(F)c1nc2ccccc2n1-c1nc(N2CCOCC2)nc(N2CCOCC2)n1
- inhibition (A549 [2]): Active
- inhibition (Mus musculus [3]): Active
- inhibition [4]: inactive
- inhibition (PANC-1 [5]): Active

Compound: O=C(CCCCC[N+](=O)[O-])N1CCN(c2nc(N3CCOCC3)nc(-n3c(C(F)F)nc4ccccc43)n2)CC1
- IC50 [1]: > 1 µM

The next lines start with results.

- inhibition (Mus musculus [3]): inactive
- inhibition [4]: Active
Compound: CNS(=O)(=O)Nc1nccc(Cc2c(C)c3ccc(Oc4ncccn4)cc3oc2=O)c1F
- inhibition (A549 [2]): inactive
- inhibition (PANC-1 [5]): inactive

- inhibition (Mus musculus [3]): inactive
- inhibition [4]: Active
Compound: O=C(NOC[C@H](O)CO)c1ccc(F)c(F)c1Nc1ccc(I)cc1F
- inhibition (A549 [2]): inactive
- inhibition (PANC-1 [5]): inactive
